The target in experiment [1] is T1, BTK enzyme (recombinant full-length BTK, hBTK) (Homo sapiens, UniProt Q06187).
T1 construct: recombinant protein from baculovirus-transfected Sf9 cells: full-length BTK, 6HIS-tag cleaved; 6HIS (cleaved yes); made in house; host or cells: baculovirus-transfected Sf9 cells
The experiment in a line: BTK enzyme activity assay, LANCE TR-FRET. The conditions noted are these: 50 pM hBTK, 2 μM biotin-A5-peptide, 25 μM ATP; 60 min compound & enzyme incubation; read-out: IC50 BTK activity value. The experiment is classed as biochemical.

Another experiment deals with HeLa cells. The experiment in a line: [3H]Adenosine uptake functional cellular assay. The experiment is classed as cell-based. The settings on record: Homo sapiens, HeLa, accumulation of [3H]adenosine into HeLa cells; compound range 10 μM to […]; read-out: Adenosine uptake inhibition IC50. In a few lines:
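Inhibition of adenosine uptake was measured in HeLa cells (ATCC CCL-2) by following accumulation of tritiated adenosine. Cells were kept overnight at 37° C. with 5% (v/v) CO2, then switched to 40 μL HBSS plus 5% (v/v) FBS. 20 μL of 500 nM [3H]adenosine was added, and uptake was counted on a Topcount NXT reader.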

T1 sequence (Q06187 whole entry): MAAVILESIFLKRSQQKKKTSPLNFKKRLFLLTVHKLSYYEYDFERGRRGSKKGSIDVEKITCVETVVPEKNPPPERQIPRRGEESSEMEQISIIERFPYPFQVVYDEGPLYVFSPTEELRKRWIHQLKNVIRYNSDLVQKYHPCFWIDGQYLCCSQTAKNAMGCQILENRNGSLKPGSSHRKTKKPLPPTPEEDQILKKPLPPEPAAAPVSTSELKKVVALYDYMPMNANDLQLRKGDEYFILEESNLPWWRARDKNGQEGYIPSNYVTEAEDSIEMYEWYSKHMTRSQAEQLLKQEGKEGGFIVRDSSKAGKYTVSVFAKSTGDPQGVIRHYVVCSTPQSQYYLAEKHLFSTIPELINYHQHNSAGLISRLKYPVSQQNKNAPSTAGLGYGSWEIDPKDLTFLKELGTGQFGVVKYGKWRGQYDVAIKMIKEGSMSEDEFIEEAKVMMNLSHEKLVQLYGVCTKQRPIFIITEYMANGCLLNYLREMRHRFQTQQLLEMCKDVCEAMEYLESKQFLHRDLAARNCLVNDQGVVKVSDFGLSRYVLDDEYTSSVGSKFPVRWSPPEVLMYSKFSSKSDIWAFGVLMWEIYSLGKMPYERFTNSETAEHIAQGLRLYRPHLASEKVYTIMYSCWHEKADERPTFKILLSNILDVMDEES

Turning to `CC(C)N1CC(=O)N2C[C@H](c3nc(-c4ccc(C(=O)Nc5cc(C(F)(F)F)ccn5)cc4)c4c(N)nccn34)CC[C@H]2C1` [Example 81], the IC50 worked out at 0.29 nM in experiment [1] and 68.6 nM in the experiment with HeLa cells.
For `COC(=O)CN1CC(=O)N2C[C@H](c3nc(-c4ccc(C(=O)Nc5cc(C(F)(F)F)ccn5)cc4)c4c(N)nccn34)CC[C@H]2C1` [Example 82], in that order: 0.19 nM and 78.1 nM.
For `Nc1nccn2c([C@@H]3CC[C@H]4CCCN4C3)nc(-c3ccc(C(=O)Nc4cc(C(F)(F)F)ccn4)cc3)c12` [Example 87, 4-(8-amino-3-((6R,8aS)-octahydroindolizin-6-yl)imidazo[1,5-a]pyrazin-1-yl)-N-(4-(trifluoromethyl)pyridin-2-yl)benzamide], in that order: 0.67 nM and 75.5 nM.
For `COc1cc(C(=O)Nc2cc(C(F)(F)F)ccn2)ccc1-c1nc([C@@H]2CC[C@H]3[C@@H](C)OC(=O)N3C2)n2ccnc(N)c12` [Example 89, 4-(8-amino-3-((1R,6R,8aS)-1-methyl-3-oxohexahydro-1H-oxazolo[3,4-a]pyridin-6-yl)imidazo[1,5-a]pyrazin-1-yl)-3-methoxy-N-(4-(trifluoromethyl)pyridin-2-yl)benzamide] the same measures were 0.13 nM and 490 nM.
For the compound `COc1cc(C(=O)Nc2cc(C(F)(F)F)ccn2)ccc1-c1nc([C@@H]2CC[C@@H]3N(C2)C(=O)OC3(C)C)n2ccnc(N)c12` [Example 90, 4-(8-amino-3-((6R,8aS)-1,1-dimethyl-3-oxohexahydro-1H-oxazolo[3,4-a]pyridin-6-yl)imidazo[1,5-a]pyrazin-1-yl)-3-methoxy-N-(4-(trifluoromethyl)pyridin-2-yl)benzamide], the IC50 in experiment [1] was 0.18 nM; with HeLa cells it was 373 nM.
For `COc1cc(C(=O)Nc2cc(C(F)(F)F)ccn2)ccc1-c1nc([C@H]2CN3C(=O)CC[C@@H]3CO2)n2ccnc(N)c12` [Example 91, 4-(8-amino-3-((3R,8aR)-6-oxohexahydro-1H-pyrrolo[2,1-c][1,4]oxazin-3-yl)imidazo[1,5-a]pyrazin-1-yl)-3-methoxy-N-(4-(trifluoromethyl)pyridin-2-yl)benzamide], in that order: 0.52 nM and 639 nM.
For `Nc1nccn2c([C@@H]3CC[C@H]4CCOC(=O)N4C3)nc(-c3ccc(C(=O)Nc4cc(C(F)(F)F)ccn4)cc3)c12` [Example 92, 4-{8-amino-3-[(4aS,7R)-1-oxohexahydro-3H-pyrido[1,2-c][1,3]oxazin-7-yl]imidazo[1,5-a]pyrazin-1-yl}-N-[4-(trifluoromethyl)pyridin-2-yl]benzamide] the same measures were 0.075 nM and 64.6 nM.
On to `Nc1nccn2c([C@H]3CC[C@@H]4CCOC(=O)N4C3)nc(-c3ccc(C(=O)Nc4cc(C(F)(F)F)ccn4)cc3)c12` [Example 93, 4-{8-amino-3-[(4aR,7S)-1-oxohexahydro-3H-pyrido[1,2-c][1,3]oxazin-7-yl]imidazo[1,5-a]pyrazin-1-yl}-N-[4-(trifluoromethyl)pyridin-2-yl]benzamide], for which the IC50 in experiment [1] amounted to 2.6 nM; with HeLa cells it was 158 nM.
For `CC1(C)C[C@H]2CC[C@H](c3nc(-c4ccc(C(=O)Nc5cc(C(F)(F)F)ccn5)cc4)c4c(N)nccn34)CN2C1=O` [Example 94, 4-{8-amino-3-[(6S,8aR)-2,2-dimethyl-3-oxooctahydroindolizin-6-yl]imidazo[1,5-a]pyrazin-1-yl}-N-[4-(trifluoromethyl)pyridin-2-yl]benzamide], in that order: 0.14 nM and 63.2 nM.
For `C[C@@H]1OC(=N)N2C[C@H](c3nc(-c4ccc(C(=O)Nc5cc(C(F)(F)F)ccn5)cc4)c4c(N)nccn34)CC[C@@H]12` [Example 96, 4-{8-amino-3-[(1S,6R,8aS)-3-imino-1-methylhexahydro[1,3]oxazolo[3,4-a]pyridin-6-yl]imidazo[1,5-a]pyrazin-1-yl}-N-[4-(trifluoromethyl)pyridin-2-yl]benzamide], in that order: 1.3 nM and 1140 nM.
Take `CC(O)c1ccnc(NC(=O)c2ccc(-c3nc([C@@H]4CC[C@H]5CCC(=O)N5C4)n4ccnc(N)c34)cc2)c1` (stereo partly drawn) [Example 97, 4-{8-amino-3-[(6R,8aS)-3-oxooctahydroindolizin-6-yl]imidazo[1,5-a]pyrazin-1-yl}-N-[4-(1-hydroxyethyl)pyridin-2-yl]benzamide]: the figures for the IC50 (in experiment [1]; with HeLa cells) were 9.7 nM and 5380 nM, respectively.
For the compound `CC(C)(O)c1ccnc(NC(=O)c2ccc(-c3nc([C@@H]4CC[C@H]5CCC(=O)N5C4)n4ccnc(N)c34)cc2)c1` [Example 98, 4-{8-amino-3-[(6R,8aS)-3-oxooctahydroindolizin-6-yl]imidazo[1,5-a]pyrazin-1-yl}-N-[4-(1-hydroxy-1-methylethyl)pyridin-2-yl]benzamide], the half-maximal inhibitory concentration (IC50) came to 49.3 nM in experiment [1] and 6320 nM in the experiment with HeLa cells.
For `COC(C)c1ccnc(NC(=O)c2ccc(-c3nc([C@@H]4CC[C@H]5CCC(=O)N5C4)n4ccnc(N)c34)cc2)c1` (stereo partly drawn) [Example 99, 4-{8-amino-3-[(6R,8aS)-3-oxooctahydroindolizin-6-yl]imidazo[1,5-a]pyrazin-1-yl}-N-[4-(1-methoxyethyl)pyridin-2-yl]benzamide], in that order: 1.5 nM and 184 nM.
For `COc1cc(C(=O)Nc2cc(C(F)(F)F)ccn2)ccc1-c1nc([C@@H]2CC[C@H]3CC(C)(C)C(=O)N3C2)n2ccnc(N)c12` [Example 100, 4-{8-amino-3-[(6R,8aS)-2,2-dimethyl-3-oxooctahydroindolizin-6-yl]imidazo[1,5-a]pyrazin-1-yl}-3-methoxy-N-[4-(trifluoromethyl)pyridin-2-yl]benzamide] the same measures were 0.51 nM and 463 nM.
Take `COc1cc(C(=O)Nc2cc(C(F)(F)F)ccn2)ccc1-c1nc([C@H]2CC[C@@H]3CC(C)(C)C(=O)N3C2)n2ccnc(N)c12` [Example 101, 4-{8-amino-3-[(6S,8aR)-2,2-dimethyl-3-oxooctahydroindolizin-6-yl]imidazo[1,5-a]pyrazin-1-yl}-3-methoxy-N-[4-(trifluoromethyl)pyridin-2-yl]benzamide]: the IC50 in experiment [1] came out at 45.4 nM; in the experiment on HeLa cells, 487 nM.
For `Nc1nccn2c([C@@H]3CC[C@H]4CN(C(=O)c5ccncc5)CC(=O)N4C3)nc(-c3ccc(C(=O)Nc4cc(C(F)(F)F)ccn4)cc3)c12` [Example 102, 4-{8-amino-3-[(7R,9aS)-4-oxo-2-(pyridin-4-ylcarbonyl)octahydro-2H-pyrido[1,2-a]pyrazin-7-yl]imidazo[1,5-a]pyrazin-1-yl}-N-[4-(trifluoromethyl)pyridin-2-yl]benzamide], in that order: 0.21 nM and 471 nM.
For `COC(=O)c1ccnc(NC(=O)c2ccc(-c3nc([C@@H]4CC[C@H]5CCC(=O)N5C4)n4ccnc(N)c34)cc2)c1` [Example 103, methyl 2-{[(4-{8-amino-3-[(6R,8aS)-3-oxooctahydroindolizin-6-yl]imidazo[1,5-a]pyrazin-1-yl}phenyl)carbonyl]amino}pyridine-4-carboxylate], in that order: 0.4 nM and 69.3 nM.
For `Nc1nccn2c([C@@H]3CC[C@H]4CCC(=O)N4C3)nc(-c3ccc(C(=O)Nc4cc(C(F)(F)F)cnn4)cc3)c12` [Example 104, 4-{8-amino-3-[(6R,8aS)-3-oxooctahydroindolizin-6-yl]imidazo[1,5-a]pyrazin-1-yl}-N-[5-(trifluoromethyl)pyridazin-3-yl]benzamide] the same measures were 1.2 nM and 303 nM.
Consider `Nc1nccn2c([C@@H]3CC[C@H]4CCC(=O)N4C3)nc(-c3ccc(C(=O)Nc4cc5ccccc5cn4)cc3)c12` [Example 106, 4-{8-amino-3-[(6R,8aS)-3-oxooctahydroindolizin-6-yl]imidazo[1,5-a]pyrazin-1-yl}-N-isoquinolin-3-ylbenzamide], for which the results for the half-maximal inhibitory concentration (IC50) (in experiment [1]; in the experiment with HeLa cells) were 0.19 nM and 193 nM, respectively.
`Nc1nccn2c([C@H]3CN4C(=O)CC[C@@H]4CO3)nc(-c3ccc(C(=O)Nc4cc(C(F)(F)F)ccn4)cc3)c12` [Example 107, 4-{8-amino-3-[(3R,8aR)-6-oxohexahydro-1H-pyrrolo[2,1-c][1,4]oxazin-3-yl]imidazo[1,5-a]pyrazin-1-yl}-N-[4-(trifluoromethyl)pyridin-2-yl]benzamide]: the IC50 stood at 0.26 nM in experiment [1] and 206 nM in the experiment with HeLa cells.
For `Nc1nccn2c([C@@H]3CC[C@H]4CN(CC(=O)O)CC(=O)N4C3)nc(-c3ccc(C(=O)Nc4cc(C(F)(F)F)ccn4)cc3)c12` [Example 108, {(7R,9aS)-7-[8-amino-1-(4-{[4-(trifluoromethyl)pyridin-2-yl]carbamoyl}phenyl)imidazo[1,5-a]pyrazin-3-yl]-4-oxooctahydro-2H-pyrido[1,2-a]pyrazin-2-yl}acetic acid] the same measures were 0.22 nM and 2880 nM.
Consider `C=C[C@@H]1OC(=O)N2C[C@H](c3nc(-c4ccc(C(=O)Nc5cc(C(F)(F)F)ccn5)cc4)c4c(N)nccn34)CC[C@@H]12` [Example 109, 4-{8-amino-3-[(1S,6R,8aS)-1-ethenyl-3-oxohexahydro[1,3]oxazolo[3,4-a]pyridin-6-yl]imidazo[1,5-a]pyrazin-1-yl}-N-[4-(trifluoromethyl)pyridin-2-yl]benzamide], for which the IC50 in experiment [1] was 6.3 nM; with HeLa cells, 116 nM.
For `C=C[C@H]1OC(=O)N2C[C@H](c3nc(-c4ccc(C(=O)Nc5cc(C(F)(F)F)ccn5)cc4)c4c(N)nccn34)CC[C@@H]12` [Example 110, 4-{8-amino-3-[(1R,6R,8aS)-1-ethenyl-3-oxohexahydro[1,3]oxazolo[3,4-a]pyridin-6-yl]imidazo[1,5-a]pyrazin-1-yl}-N-[4-(trifluoromethyl)pyridin-2-yl]benzamide] the same measures were 16.8 nM and 100 nM.

The record behind these values is patent US20140206681A1, “BTK INHIBITORS” (priority 2013, published 2014).
